Consider 1 molecule from publication PMC4791268, “Inhibition of p300 lysine acetyltransferase activity by luteolin reduces tumor growth in head and neck squamous cell carcinoma (HNSCC) xenograft mouse model” (Oncotarget, 2015).

Structures are written as SMILES.

The target in this assay is T1, p300 (Homo sapiens, UniProt Q09472).
T1 construct: gene EP300; hexahistidine tagged full length p300
Description: filter binding KAT assay with HeLa core histones; enzyme inhibition kinetics. It is filed as biochemical.

T1 sequence (Q09472 2-2414): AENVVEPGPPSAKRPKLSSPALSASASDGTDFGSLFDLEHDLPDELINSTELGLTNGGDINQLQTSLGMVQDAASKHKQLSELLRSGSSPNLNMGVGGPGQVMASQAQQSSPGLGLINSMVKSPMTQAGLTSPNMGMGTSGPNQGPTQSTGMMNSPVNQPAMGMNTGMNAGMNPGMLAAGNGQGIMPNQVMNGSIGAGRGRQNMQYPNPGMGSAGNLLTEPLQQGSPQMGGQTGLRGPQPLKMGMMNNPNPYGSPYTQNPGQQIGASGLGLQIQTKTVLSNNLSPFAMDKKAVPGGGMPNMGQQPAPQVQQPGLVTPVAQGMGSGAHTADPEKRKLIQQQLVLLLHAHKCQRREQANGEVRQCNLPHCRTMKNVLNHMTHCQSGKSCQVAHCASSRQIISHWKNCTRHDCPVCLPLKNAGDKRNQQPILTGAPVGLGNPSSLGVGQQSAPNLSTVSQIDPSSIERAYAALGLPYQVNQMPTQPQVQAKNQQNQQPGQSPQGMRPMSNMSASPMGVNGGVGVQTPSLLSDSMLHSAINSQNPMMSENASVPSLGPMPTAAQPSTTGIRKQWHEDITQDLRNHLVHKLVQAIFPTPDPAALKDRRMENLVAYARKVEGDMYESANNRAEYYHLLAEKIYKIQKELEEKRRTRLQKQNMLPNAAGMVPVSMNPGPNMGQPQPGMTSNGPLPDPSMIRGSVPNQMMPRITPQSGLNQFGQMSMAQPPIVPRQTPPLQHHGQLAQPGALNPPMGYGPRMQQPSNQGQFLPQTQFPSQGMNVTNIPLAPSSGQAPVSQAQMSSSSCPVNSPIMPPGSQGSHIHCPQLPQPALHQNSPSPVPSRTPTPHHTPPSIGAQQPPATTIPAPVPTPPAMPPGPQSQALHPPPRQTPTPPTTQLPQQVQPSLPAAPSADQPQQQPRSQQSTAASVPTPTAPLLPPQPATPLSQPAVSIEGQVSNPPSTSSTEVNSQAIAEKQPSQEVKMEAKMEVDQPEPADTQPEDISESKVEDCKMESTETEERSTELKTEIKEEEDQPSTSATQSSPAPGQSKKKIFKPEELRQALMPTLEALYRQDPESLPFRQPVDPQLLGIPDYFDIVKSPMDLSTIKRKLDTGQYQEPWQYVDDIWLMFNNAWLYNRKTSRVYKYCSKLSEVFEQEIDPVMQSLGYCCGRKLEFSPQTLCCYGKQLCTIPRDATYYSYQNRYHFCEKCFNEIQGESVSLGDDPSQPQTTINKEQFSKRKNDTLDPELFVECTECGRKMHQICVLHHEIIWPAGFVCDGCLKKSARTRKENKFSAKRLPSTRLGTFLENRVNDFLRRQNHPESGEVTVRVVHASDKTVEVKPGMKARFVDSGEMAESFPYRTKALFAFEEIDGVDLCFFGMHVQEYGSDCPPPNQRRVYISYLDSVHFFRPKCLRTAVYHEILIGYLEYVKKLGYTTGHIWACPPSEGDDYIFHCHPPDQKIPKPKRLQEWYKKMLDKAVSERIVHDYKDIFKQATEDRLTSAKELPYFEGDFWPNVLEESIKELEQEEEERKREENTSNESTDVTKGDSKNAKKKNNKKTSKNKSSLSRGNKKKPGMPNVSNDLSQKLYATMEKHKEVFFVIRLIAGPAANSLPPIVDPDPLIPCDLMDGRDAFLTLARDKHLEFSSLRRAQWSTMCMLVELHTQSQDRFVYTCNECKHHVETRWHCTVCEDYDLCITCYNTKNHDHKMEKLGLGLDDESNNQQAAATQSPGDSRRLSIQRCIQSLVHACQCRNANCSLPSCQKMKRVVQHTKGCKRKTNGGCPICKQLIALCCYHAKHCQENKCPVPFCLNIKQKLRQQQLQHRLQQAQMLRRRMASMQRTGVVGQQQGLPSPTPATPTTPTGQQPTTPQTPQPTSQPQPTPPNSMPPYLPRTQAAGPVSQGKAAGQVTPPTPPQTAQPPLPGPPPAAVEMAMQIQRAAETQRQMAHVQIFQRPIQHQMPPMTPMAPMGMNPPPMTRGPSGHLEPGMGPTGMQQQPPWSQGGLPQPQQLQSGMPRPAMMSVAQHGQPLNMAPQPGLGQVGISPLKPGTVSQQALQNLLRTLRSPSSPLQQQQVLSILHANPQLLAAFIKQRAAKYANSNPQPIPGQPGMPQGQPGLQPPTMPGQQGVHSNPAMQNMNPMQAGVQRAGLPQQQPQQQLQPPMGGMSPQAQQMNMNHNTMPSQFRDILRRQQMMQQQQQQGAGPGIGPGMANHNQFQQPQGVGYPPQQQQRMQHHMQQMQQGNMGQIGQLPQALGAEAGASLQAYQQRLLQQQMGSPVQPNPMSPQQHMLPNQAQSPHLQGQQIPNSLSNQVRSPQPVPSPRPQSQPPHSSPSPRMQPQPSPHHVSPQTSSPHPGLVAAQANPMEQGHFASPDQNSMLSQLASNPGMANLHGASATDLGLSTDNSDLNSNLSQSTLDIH

A word on the IC50: it is the concentration at which inhibition is half-maximal. Higher therefore signals weaker potency. For `O=c1cc(-c2ccc(O)c(O)c2)oc2cc(O)cc(O)c12` [luteolin], the half-inhibitory concentration (IC50) turned out to be 7 µM.
